One may read the IC50 as the concentration needed to halve the response being measured.

In test [1] the target is Sodium-dependent serotonin transporter. In words: Inhibition of [3H]citalopram binding to serotonin transporter (SERT) of cynomolgus monkey caudate-putamen. The test is classed as tissue-based.
Test [2] concerns the target Sodium-dependent dopamine transporter (Macaca fascicularis, UniProt Q9GJT6). In words: Inhibition of [3H]WIN-35428 binding to dopamine transporter (DAT) of cynomolgus monkey caudate-putamen. It is filed as tissue-based.

Sequence of Sodium-dependent dopamine transporter (Q9GJT6 whole entry): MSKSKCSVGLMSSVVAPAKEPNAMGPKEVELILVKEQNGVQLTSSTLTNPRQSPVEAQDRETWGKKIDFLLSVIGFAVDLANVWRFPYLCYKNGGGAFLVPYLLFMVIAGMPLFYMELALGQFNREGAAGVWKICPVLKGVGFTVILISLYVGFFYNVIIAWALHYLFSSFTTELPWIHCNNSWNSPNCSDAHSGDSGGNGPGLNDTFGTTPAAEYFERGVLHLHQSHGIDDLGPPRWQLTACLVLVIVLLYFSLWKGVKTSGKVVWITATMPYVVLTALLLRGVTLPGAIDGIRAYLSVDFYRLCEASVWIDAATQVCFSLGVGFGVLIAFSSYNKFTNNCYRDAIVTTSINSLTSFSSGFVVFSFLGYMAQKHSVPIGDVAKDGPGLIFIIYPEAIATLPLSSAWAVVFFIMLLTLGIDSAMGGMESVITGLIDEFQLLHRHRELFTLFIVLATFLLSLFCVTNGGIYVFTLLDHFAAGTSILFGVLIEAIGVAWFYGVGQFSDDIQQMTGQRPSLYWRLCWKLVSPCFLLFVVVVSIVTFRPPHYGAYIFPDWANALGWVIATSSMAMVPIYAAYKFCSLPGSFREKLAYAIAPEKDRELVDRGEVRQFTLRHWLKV

As for `COC(=O)C1=C(c2ccc(Cl)c(Cl)c2)CC2CCC1N2C` (stereo not given), the IC50 in test [1] amounted to 867 nM; in test [2], 1.2 nM.
The corresponding values for `COC(=O)C1=C(c2ccc(Cl)c(Cl)c2)CC2CCC1C2` (racemic) are 5160 nM and 7.1 nM.
As for `COC(=O)C1C2CCC(C2)CC1c1ccc(Cl)c(Cl)c1` (racemic), the IC50 in test [1] was 180 nM; in test [2], 14.3 nM.
`COC(=O)C1C2CCC(CC1c1ccc(Cl)c(Cl)c1)N2` (stereo not given): the IC50 in test [1] is 1.24 nM; in test [2], 0.7 nM.
The like results for `COC(=O)C1C2CCC(C2)CC1c1ccc(Cl)c(Cl)c1` (stereo in doubt; 6a (R/S)) were, in that order, 33.4 nM and 9.6 nM.
Take `COC(=O)C1=C(c2ccc(Cl)c(Cl)c2)CC2CCC1O2` (stereo in doubt; 5b (R)): the half-inhibitory concentration (IC50) in test [1] came to 2120 nM; in test [2], 4.2 nM.
For the molecule `COC(=O)C1C2CCC(CC1c1ccc(Cl)c(Cl)c1)O2` (stereo in doubt; 7b (R)), the 50% inhibitory concentration (IC50) was 30.3 nM in test [1] and 2.3 nM in test [2].
The corresponding values for `COC(=O)C1C(c2ccc(Cl)c(Cl)c2)CC2CCC1N2C` (stereo not given) are 27.6 nM and 1.1 nM.
As to `COC(=O)C1C2CCC(CC1c1ccc(Cl)c(Cl)c1)O2` (racemic; form 1), the IC50 in test [2] came to 3.4 nM.
On the same count and under the same terms, the value for `COC(=O)C1C2CCC(CC1c1ccc(Cl)c(Cl)c1)O2` (racemic; form 2) was 3.1 nM.
As for `COC(=O)C1=C(c2ccc(Cl)c(Cl)c2)CC2CCC1O2` (stereo in doubt; 5b (R/S)), the figures for the IC50 in test [1] and in test [2] were 1960 nM and 12.8 nM, respectively.

Source of the values: ChEMBL document CHEMBL1132078, “Bicyclo[3.2.1]octanes: synthesis and inhibition of binding at the dopamine and serotonin transporters” (Bioorg Med Chem Lett, 1999).
